Laboratory results reported in ChEMBL document CHEMBL1201862, “PubChem BioAssay data set” (2004).
Values joined by “and” are separate entries in the source; they are usually repeats but may differ in a detail not shown here. Identical values can stand only once.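 Where inhibition never reached the appropriate level, the endpoint shown equals the highest concentration tested. Otherwise, values were interpolated linearly from a five-concentration, 48-hour dose response in 96-well plates. Abbreviation: GI50, concentration required for 50% inhibition of growth.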 Active and inactive are the calls of the source. No stated cut-off is given here; in the data, active = GI50 up to about 1.1 µM and inactive = higher. Where a SMILES comes first, the peptide text is derived from it. [ ]: non-standard residue; d: D form. The star is where a group is joined. Iva = CC[C](C)(N)C(=O)O; Boc = CC(C)(C)OC(=O)*; X54 = C1CCC(=NO*)C1

Columns and labels:
Assay in all cases: growth of human tumour cells (NCI), 48 h
KM12 = system: KM12
SK-OV-3 = system: SK-OV-3
RPMI-8226 = system: RPMI-8226
LOX IMVI = system: LOX IMVI
OVCAR-5 = system: OVCAR-5
SNB-75 = system: SNB-75
A549 = system: A549
NCI-H23 = system: NCI-H23
EKVX = system: EKVX
UACC-62 = system: UACC-62
NCI-H522 = system: NCI-H522
COLO 205 = system: COLO 205
RXF 393 = system: RXF 393
HOP-92 = system: HOP-92
UO-31 = system: UO-31
SK-MEL-5 = system: SK-MEL-5
K562 = system: K562
HCC 2998 = system: HCC 2998
HCT-15 = system: HCT-15
SNB-19 = system: SNB-19

| Structure (SMILES) | GI50 (KM12) | GI50 (SK-OV-3) | GI50 (RPMI-8226) | GI50 (LOX IMVI) | GI50 (OVCAR-5) | GI50 (SNB-75) | GI50 (A549) | GI50 (NCI-H23) | GI50 (EKVX) | GI50 (UACC-62) | GI50 (NCI-H522) | GI50 (COLO 205) | GI50 (RXF 393) | GI50 (HOP-92) | GI50 (UO-31) | GI50 (SK-MEL-5) | GI50 (K562) | GI50 (HCC 2998) | GI50 (HCT-15) [µM] | GI50 (SNB-19) |
| --- | --- | --- | --- | --- | --- | --- | --- | --- | --- | --- | --- | --- | --- | --- | --- | --- | --- | --- | --- | --- |
| CC(C(=O)O)c1cnn(-c2ccccc2)c1-n1cccc1 (stereo not drawn) | > 100 µM (inactive) | > 100 µM (inactive) | > 100 µM (inactive) | > 100 µM (inactive) | > 100 µM (inactive) | > 100 µM (inactive) | > 100 µM (inactive) | > 100 µM (inactive) | > 100 µM (inactive) | > 100 µM (inactive) | > 100 µM (inactive) | > 100 µM (inactive) | > 100 µM (inactive) | > 100 µM (inactive) | > 100 µM (inactive) | > 100 µM (inactive) | > 100 µM (inactive) | > 100 µM (inactive) | > 100 | > 100 µM (inactive) |
| CCOC(=O)C1=C(C)N(C2OC(COC(C)=O)C(OC(C)=O)C(OC(C)=O)C2OC(C)=O)C(=O)NC1c1ccccc1 (stereo not drawn) | > 100 µM (inactive) | > 100 µM (inactive) | 4.84 µM (inactive) | > 100 µM (inactive) | > 100 µM (inactive) | 55 µM (inactive) | > 100 µM (inactive) | > 100 µM (inactive) | > 100 µM (inactive) | > 100 µM (inactive) | 20 µM (inactive) | > 100 µM (inactive) | – | – | > 100 µM (inactive) | > 100 µM (inactive) | > 100 µM (inactive) | > 100 µM (inactive) | > 100 | > 100 µM (inactive) |
| CC(Oc1ccc(Oc2cnc3ccc(Cl)cc3n2)cc1)C(=O)O (stereo not drawn) | – | – | – | 51.8 µM (inactive) | > 100 µM (inactive) | 47.3 µM (inactive) | 68.5 µM (inactive) | > 100 µM (inactive) | > 100 µM (inactive) | > 100 µM (inactive) and 81.1 µM (inactive) | 32.7 µM (inactive) | > 70 µM (inactive) | > 100 µM (inactive) | > 100 µM (inactive) | > 95.9 µM (inactive) | > 62.8 µM (inactive) and 72.8 µM (inactive) | – | – | – | > 100 µM (inactive) |
| COc1ccc(-c2c3c(nc4nc(SCC(=O)c5ccc(Br)cc5)nc(N)c24)CCCC3)cc1OC | > 100 µM (inactive) | 30.5 µM (inactive) | 64.1 µM (inactive) | > 100 µM (inactive) | > 100 µM (inactive) | 14.9 µM (inactive) | > 100 µM (inactive) | > 100 µM (inactive) | 84.1 µM (inactive) | > 100 µM (inactive) | – | > 100 µM (inactive) | 19.3 µM (inactive) | – | > 100 µM (inactive) | 10.1 µM (inactive) | > 100 µM (inactive) | – | > 100 | > 100 µM (inactive) |
| CC(=O)c1ccc(Oc2ccc(/C(C)=N\N=C(N)N)cc2)cc1 | – | 2.83 µM (inactive) | 2.31 µM (inactive) | 3.4 µM (inactive) | 4.68 µM (inactive) | 1.47 µM (inactive) | 4.12 µM (inactive) | 3.75 µM (inactive) | 4.51 µM (inactive) | 2 µM (inactive) | 1.8 µM (inactive) | 1.67 µM (inactive) | – | 2.96 µM (inactive) | – | 2.08 µM (inactive) | – | 8.41 µM (inactive) | 2.17 | 10.7 µM (inactive) |
| COc1cc2cc[n+]3c(C)c4cc(OC)c(OC)cc4c([O-])c3c2cc1OC | 70.1 µM (inactive) | > 100 µM (inactive) | > 100 µM (inactive) | – | > 100 µM (inactive) | 33 µM (inactive) | > 100 µM (inactive) | 87.7 µM (inactive) | > 100 µM (inactive) | > 100 µM (inactive) | 18.2 µM (inactive) | 12.4 µM (inactive) | 35.6 µM (inactive) | > 100 µM (inactive) | > 100 µM (inactive) | 36.8 µM (inactive) | 64.3 µM (inactive) | > 100 µM (inactive) | > 100 | > 100 µM (inactive) |
| C/C(=N/NC(=O)c1ccncc1)C(F)(F)F | > 100 µM (inactive) | > 100 µM (inactive) | > 100 µM (inactive) | – | > 100 µM (inactive) | > 100 µM (inactive) | – | > 100 µM (inactive) | – | > 100 µM (inactive) | > 100 µM (inactive) | > 100 µM (inactive) | > 100 µM (inactive) | > 100 µM (inactive) | > 100 µM (inactive) | > 100 µM (inactive) | > 100 µM (inactive) | > 100 µM (inactive) | > 100 | > 100 µM (inactive) |
| CCCCCCCCCCCCCCCc1ccc(OCC(O)CO)cc1 (stereo not drawn) | 17.2 µM (inactive) | 99.3 µM (inactive) | 18.9 µM (inactive) | 18.2 µM (inactive) | > 100 µM (inactive) | 27 µM (inactive) | 22.6 µM (inactive) | 17.8 µM (inactive) | 31.9 µM (inactive) | 23.9 µM (inactive) | 18.2 µM (inactive) | 23.6 µM (inactive) | 18.7 µM (inactive) | 20.7 µM (inactive) | > 100 µM (inactive) | 34 µM (inactive) | > 100 µM (inactive) | 22.9 µM (inactive) | 81.8 | 40.1 µM (inactive) |
| C[C@@H]1C[C@]2(C[C@@H](C)[C@H]3C(C[C@@]4(C)CCC[C@@H]5C6=C[C@H](CCC34C)OC6=CC(=O)OC5(C)C)O2)OC1=O (stereo partly drawn) | > 51.5 µM (inactive) | > 51.5 µM (inactive) | > 51.5 µM (inactive) | > 51.5 µM (inactive) | > 51.5 µM (inactive) | 13.1 µM (inactive) | > 51.5 µM (inactive) | > 51.5 µM (inactive) | > 51.5 µM (inactive) | > 51.5 µM (inactive) | > 51.5 µM (inactive) | > 51.5 µM (inactive) | – | 43.1 µM (inactive) | > 51.5 µM (inactive) | > 51.5 µM (inactive) | > 51.5 µM (inactive) | > 51.5 µM (inactive) | > 51.5 | > 51.5 µM (inactive) |
| COC(=O)/C=C\Sc1ccn(/C=C\C(=O)OC)c(=S)n1 | 12.4 µM (inactive) | – | 46 µM (inactive) | 2.77 µM (inactive) | 38.5 µM (inactive) | 22.9 µM (inactive) | 22.1 µM (inactive) | 25.8 µM (inactive) | 26.2 µM (inactive) | – | 16.1 µM (inactive) | 66.5 µM (inactive) | 10.5 µM (inactive) | 18.5 µM (inactive) | 25.1 µM (inactive) | 24.1 µM (inactive) | 38.5 µM (inactive) | 37.1 µM (inactive) | 16.7 | 21.8 µM (inactive) |
| COc1cc(C(O)(CC#N)c2cc3c(cc2Br)OCO3)cc(OC)c1OC (stereo not drawn) | 21 µM (inactive) | 24.4 µM (inactive) | 50.7 µM (inactive) | 31.3 µM (inactive) | 17.4 µM (inactive) | 65.3 µM (inactive) | 22.9 µM (inactive) | 51.9 µM (inactive) | 54.1 µM (inactive) | 24.9 µM (inactive) | – | 37.6 µM (inactive) | 17.2 µM (inactive) | > 100 µM (inactive) | 57.5 µM (inactive) | – | 48 µM (inactive) | 24 µM (inactive) | – | 27.1 µM (inactive) |
| CCC(C)(NC(=O)C(C)NC(=O)OC(C)(C)C)C(=O)NC(C)C(=O)NC(C)(CC)C(=O)ON=C1CCCC1 (stereo not drawn) (Boc-A[Iva]A[Iva]-X54; configuration not given here) | > 100 µM (inactive) | > 100 µM (inactive) | > 100 µM (inactive) | – | > 100 µM (inactive) | > 100 µM (inactive) | – | > 100 µM (inactive) | – | > 100 µM (inactive) | > 100 µM (inactive) | > 100 µM (inactive) | 16.7 µM (inactive) | > 100 µM (inactive) | > 100 µM (inactive) | > 100 µM (inactive) | 31.1 µM (inactive) | > 100 µM (inactive) | > 100 | > 100 µM (inactive) |
| COc1ccc(/C=N/n2cnc3c(c2=O)SC(=C(C#N)C#N)N3c2ccccc2)cc1 | > 100 µM (inactive) | > 100 µM (inactive) | > 100 µM (inactive) | – | > 100 µM (inactive) | 27.6 µM (inactive) | > 100 µM (inactive) | > 100 µM (inactive) | – | > 100 µM (inactive) | 56.2 µM (inactive) | > 100 µM (inactive) | – | 38.8 µM (inactive) | > 100 µM (inactive) | > 100 µM (inactive) | > 100 µM (inactive) | > 100 µM (inactive) | – | > 100 µM (inactive) |
| COc1ncnc2c(Cl)c(C(O)c3ccccc3)c(Cl)cc12 (stereo not drawn) | 26.7 µM (inactive) | 19.5 µM (inactive) | 18.7 µM (inactive) | 53.3 µM (inactive) | 60.5 µM (inactive) | 22.4 µM (inactive) | 34.8 µM (inactive) | 41.6 µM (inactive) | 30.5 µM (inactive) | 16.1 µM (inactive) | 31.3 µM (inactive) | 29.4 µM (inactive) | 15.5 µM (inactive) | 15.7 µM (inactive) | 37.3 µM (inactive) | 26.2 µM (inactive) | 14.9 µM (inactive) | – | 24.6 | 26.6 µM (inactive) |
| O=C1C(Cl)N(c2ccc(Cl)cc2)C1c1c[nH]c2ccccc12 (stereo not drawn) | 27 µM (inactive) | > 10 µM (inactive) | 20.6 µM (inactive) | – | – | 19.1 µM (inactive) | 33.7 µM (inactive) | 18.4 µM (inactive) | 16.9 µM (inactive) | 14.9 µM (inactive) | 17.2 µM (inactive) | 22.5 µM (inactive) | 20 µM (inactive) | 22.5 µM (inactive) | 11.6 µM (inactive) | 15.5 µM (inactive) | 16.7 µM (inactive) | – | – | 18.2 µM (inactive) |
